These results are taken from patent US10730850B2, “Pyridinylmethyl carbamimidoylcarbamate derivatives and their use as AOC3 inhibitors” (Boehringer Ingelheim International GmbH, priority 2016, dated 2020).

Read-outs that look alike come from different tables or passages of the source. Some results are limits rather than exact numbers.

A short description of data set [1]: In vivo clearance experiment (biliary clearance). The settings on record: rat, bile collected 0-180 min. The protocol:
Bile flow is continuously collected from animal for 4 hours, including the 1 hour post-surgery recovery period. For short biliary excretion study, blood samples are taken at 0, 5 and 180 min and bile samples collection intervals are: 10 min before dosing and 0-180 min. All blood and bile samples are collected from 2 rats and are not pooled. Bile is kept at 4° C. during the collecting intervals and immediately frozen in dry ice after the collecting period is over.
As biliary clearance is expected to be impaired in patients with liver diseases (Clarke J. D. et. al J. Pharm. Exp. Ther. 348:452-458; Ferslew B. C. et al. Clin. Pharm. & Ther. Vol 97(4) XX), a reduced biliary clearance results in a better predictibitlity of the pharmacokinetics and assessment of safety margins in this patient population.

In another data set the test system is hepatocytes. Description: Metabolic stability assay in hepatocyte suspension. The format is in vitro ADME. The settings on record: 1 μM test compound. The protocol:
The metabolic degradation of the test compound is assayed in a hepatocyte suspension. Hepatocytes (typically cryopreserved) are incubated in an appropriate buffer system (e.g. Dulbecco's modified eagle medium plus 3.5 μg glucagon/500 mL, 2.5 mg insulin/500 mL and 3.75 mg/500 mL hydrocortison) containing 5% species serum. Following a (typically) 30 min preincubation in an incubator (37° C., 10% CO2) 5 μl of test compound solution (80 μM; from 2 mM in DMSO stock solution diluted 1:25 with medium) are added into 395 μl hepatocyte suspension (cell density in the range 0.25-5 Mio cells/mL, typically 1 Mio cells/mL; final concentration of test compound 1 μM, final DMSO concentration 0.05%). The cells are incubated for six hours (incubator, orbital shaker) and samples (25 μl) are taken at 0, 0.5, 1, 2, 4 and 6 hours. Samples are transferred into acetonitrile and pelleted by centrifugation (5 min). The supernatant is transferred to a new 96-deepwell plate, evaporated under nitrogen and resuspended. Decline of parent compound is analyzed by HPLC-MS/MS
CLint is calculated as follows CL_INTRINSIC=Dose/AUC=(C0/CD)/(AUD+clast/k)×1000/60. C0: initial concentration in the incubation [μM], CD: cell density of vital cells [10e6 cells/mL], AUD: area under the data [μM×h], clast: concentration of last data point [μM], k: slope of the regression line for parent decline [h-1].
The calculated in vitro hepatic intrinsic clearance can be scaled up to the intrinsic in vivo hepatic Clearance and used to predict hepatic in vivo blood clearance (CL) by the use of a liver model (well stirred model). CL_INTRINSIC_INVIVO [ml/min/kg]=(CL_INTRINSIC [μL/min/10e6 cells]×hepatocellularity [10e6 cells/g liver]×liver factor [g/kg bodyweight])/1000 CL [ml/min/kg]=CL_INTRINSIC_INVIVO [ml/min/kg]×hepatic blood flow [ml/min/kg]/(CL_INTRINSIC_INVIVO [ml/min/kg]+hepatic blood flow [ml/min/kg])

The target in the next data set is AOC3 (Homo sapiens (Human), UniProt Q16853). Description: MAO-Glo AOC3 assay (recombinant CHO cells overexpressing AOC3). The data set is classed as biochemical. The source says:
The MAO-Glo™ Assay (commercial available from PROMEGA, # V1402) provides a sensitive method for the measurement of monoamine oxidase (MAO) activity (Valley, M. P. et al., 2006, Anal. Biochem. 359: 238-246) from a variety of tissues, biofluids or recombinant expressed or purified enzymes. As substrate a derivate of the beetle luciferin ((4S)-4,5-dihydro-2-(6-hydroxybenzothiazolyl)-4-thiazole-carboxylic acid) is used, which is oxidized at a primary amine moiety. After a spontaneous elimination and a catalyzed esterase reaction, the turnover of the luciferine by the luciferase is recorded as a signal of AOC3 activity.
An aliquot of 3 μL of the compound dilution is added to a 384 well plate (Optiplate, PS, flat bottom, white, PERKIN ELMER, #6007290) with a final DMSO concentration of 6.6%. Recombinant CHO cells, overexpressing the human (1500 cells/well), mouse (1000 cells/well) or rat (500 cells/well) AOC3 enzyme are diluted in reaction buffer and added in a volume of 15 μL to the wells. After incubation for 20 minutes at 37° C., 2 μL of MAO substrate (dissolved in DMSO at 16 mM, adjusted to assay concentration in reaction buffer to a final assay concentration of 20 μM) is added and further incubated for 60 minutes at 37° C. The turnover of the substrate is determined by the addition of 20 μL of the detection-mix which was generated by the addition of reconstitution buffer with esterase (PROMEGA, # V1402) to the luciferine detection reagent (PROMEGA, # V1402). After an incubation period of 20 minutes, the luminescent signal is measured with Envision 2104 Multilabel Reader (PERKIN ELMER).
In the following table the activity expressed as IC50 (nM) of compounds according to the invention is presented wherein the IC50 values are determined in the MAO-Glo™ AOC3 assay as described hereinbefore. The term “Example” refers to the example numbers according to the following experimental section.

Where [2] appears, read: compounds of the present invention.
[3] abbreviates: Table 3, compounds of the present invention.
Where [4] appears, read: Table 2, compounds of the present invention, read-out: IC50.
The mark [5] stands for this setting: comparative compounds of EP 2 695 881.
Setting [6] is: Table 3, comparative compounds of EP 2 695 881.
[7] abbreviates: Table 2, comparative compounds of EP 2 695 881, read-out: IC50.

Chain of AOC3 (Q16853 whole entry): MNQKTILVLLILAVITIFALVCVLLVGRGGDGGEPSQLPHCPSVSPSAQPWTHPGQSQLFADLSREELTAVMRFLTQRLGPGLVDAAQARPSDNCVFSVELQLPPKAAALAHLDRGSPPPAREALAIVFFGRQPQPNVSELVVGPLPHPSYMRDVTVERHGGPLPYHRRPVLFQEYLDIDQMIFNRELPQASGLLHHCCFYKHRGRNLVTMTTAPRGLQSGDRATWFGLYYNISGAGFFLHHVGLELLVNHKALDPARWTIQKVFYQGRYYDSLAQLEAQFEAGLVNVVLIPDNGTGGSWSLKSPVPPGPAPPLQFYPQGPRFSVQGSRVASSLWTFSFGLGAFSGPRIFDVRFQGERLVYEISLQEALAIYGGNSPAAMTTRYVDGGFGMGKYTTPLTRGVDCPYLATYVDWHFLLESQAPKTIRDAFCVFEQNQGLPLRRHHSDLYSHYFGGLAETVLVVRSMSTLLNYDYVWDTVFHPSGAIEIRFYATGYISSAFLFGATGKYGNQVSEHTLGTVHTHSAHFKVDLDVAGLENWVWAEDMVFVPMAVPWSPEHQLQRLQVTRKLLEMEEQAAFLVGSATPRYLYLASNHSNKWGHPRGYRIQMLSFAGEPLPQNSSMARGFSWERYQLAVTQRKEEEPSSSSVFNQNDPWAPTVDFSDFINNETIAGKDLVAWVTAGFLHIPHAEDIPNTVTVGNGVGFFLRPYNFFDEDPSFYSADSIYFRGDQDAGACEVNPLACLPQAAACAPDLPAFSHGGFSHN

One may read the IC50 as the concentration that inhibits the measured activity by half. In the case of `N=C(N)NC(=O)OCc1ccnc(N2CCN(c3ccc(C(N)=O)cc3)CC2)c1F` [Example 1.084], the “Cl (biliary clearance)” value in data set [1] (setting [2]) was found to be 2.2%. Further, the results for the QH with hepatocytes (setting [3]) and in the data set with hepatocytes (Table 4) were 23% and 10%, respectively. Further, the IC50 is 3 nM at AOC3 (Table 1, read-out: AOC3 IC50) and 2.8 nM at AOC3 (setting [4]).

Regarding `COc1ncc(N2CCN(c3nccc(COC(=O)NC(=N)N)c3F)CC2)cn1` [Example 1.072], the “Cl (biliary clearance)” value in data set [1] (setting [2]) turned out to be 1.2%. The QH is 3.7% in the data set with hepatocytes (setting [3]) and 4% in the data set on hepatocytes (Table 4). The IC50 at AOC3 (Table 1, read-out: AOC3 IC50) was 4 nM; on AOC3 (setting [4]), 4.1 nM.

For the molecule `CC(=O)N1CCC(C2CN(c3cccc(COC(=O)NC(=N)N)c3F)C2)CC1` [559 (293), reference compound], the “Cl (biliary clearance)” value in data set [1] (setting [5]) is listed as 10.3%.

For the molecule `CN(C)C(=O)c1ccc(N2CCN(c3nccc(COC(=O)NC(=N)N)c3F)CC2)nc1` [Example 1.101], the QH with hepatocytes (Table 4) was under 4%. Besides, on AOC3 (Table 1, read-out: AOC3 IC50), the IC50 is 7 nM.

For `N=C(N)NC(=O)OCc1ccnc(N2CCC(C3CCOCC3)CC2)c1F` [Example 1.023], the QH in the data set on hepatocytes (Table 4) came to 14%. Further, the IC50 on AOC3 (Table 1, read-out: AOC3 IC50) worked out at 8 nM.

For the molecule `N=C(N)NC(=O)OCc1ccnc(N2CCN(c3ccccc3)C(=O)C2)c1F` [Example 1.033], in the data set on hepatocytes (Table 4), the QH came out at 4%. In addition, at AOC3 (Table 1, read-out: AOC3 IC50), the IC50 came to 6 nM.

In the data set with hepatocytes (Table 4), `N=C(N)NC(=O)OCc1ccnc(N2CCN(c3ccc(Cl)cn3)CC2)c1F` [Example 1.078] registered a QH of 14%. Further, the IC50 on AOC3 (Table 1, read-out: AOC3 IC50) was 9 nM.

Molecule `COC(=O)N1CCC(C2CCN(c3nccc(COC(=O)NC(=N)N)c3F)CC2)CC1` [Example 1.095] showed a QH with hepatocytes (Table 4) of 15%. For the same molecule, the IC50 on AOC3 (Table 1, read-out: AOC3 IC50) was 3 nM.

As to `CC(=O)N1CCC(C2CN(c3cccc(COC(=O)NC(=N)N)n3)C2)CC1` [Example 1.016], the QH in the data set with hepatocytes (Table 4) amounted to 6%. Besides, on AOC3 (Table 1, read-out: AOC3 IC50), the IC50 was found to be 10 nM.

On to `N=C(N)NC(=O)OCc1cccc(N2CCN(c3ccc(C(N)=O)cc3)CC2)c1F` [reference compound], for which, in the data set on hepatocytes (setting [6]), the QH turned out to be 47%. Besides, at AOC3 (setting [7]), the 50% inhibitory concentration (IC50) was 2.5 nM.

Consider `CNC(=O)c1ccc(N2CCN(c3nccc(COC(=O)NC(=N)N)c3F)CC2)nc1` [Example 1.091], for which, in the data set with hepatocytes (Table 4), the QH was found to be 7%. Moreover, the IC50 at AOC3 (Table 1, read-out: AOC3 IC50) turned out to be 7 nM.

`Cc1cc(N2CCN(c3nccc(COC(=O)NC(=N)N)c3F)CC2)ccn1` [Example 1.039] gave a QH in the data set with hepatocytes (Table 4) of under 4%. In addition, the 50% inhibitory concentration (IC50) on AOC3 (Table 1, read-out: AOC3 IC50) came to 2 nM.

For `COc1ncc(N2CCN(c3cccc(COC(=O)NC(=N)N)c3F)CC2)cn1` [126 (235), reference compound], the QH in the data set on hepatocytes (setting [6]) came out at 11%. Further, the IC50 on AOC3 (setting [7]) was 3.9 nM.

In the case of `COc1ccc(N2CCN(c3nccc(COC(=O)NC(=N)N)c3F)CC2)cc1` [Example 1.067], the QH in the data set with hepatocytes (setting [3]) is on record as 10%; in the data set on hepatocytes (Table 4), 23%. Moreover, the IC50 on AOC3 (Table 1, read-out: AOC3 IC50) stood at 5 nM; at AOC3 (setting [4]), 4.6 nM.

Consider `N#CC1(c2ccccc2)CCN(c2nccc(COC(=O)NC(=N)N)c2F)CC1` [Example 1.050], for which the QH with hepatocytes (Table 4) is given as 10%. On AOC3 (Table 1, read-out: AOC3 IC50), the IC50 is 2 nM.

`N=C(N)NC(=O)OCc1ccnc(N2CCN(c3ccc(C(N)=O)cn3)CC2)c1F` [Example 1.086] gave a QH with hepatocytes (Table 4) of 11%. The IC50 on AOC3 (Table 1, read-out: AOC3 IC50) worked out at 7 nM.

With `CC(=O)N1CCC(COc2ncc(-c3cccc(COC(=O)NC(=N)N)c3F)cn2)CC1` [11 (221), reference compound], the “Cl (biliary clearance)” value in data set [1] (setting [5]) is 22.4%.

`CS(=O)(=O)c1ccc(N2CCN(c3nccc(COC(=O)NC(=N)N)c3F)CC2)c(F)c1` [Example 1.106] had a QH in the data set on hepatocytes (Table 4) of 8%. The IC50 at AOC3 (Table 1, read-out: AOC3 IC50) worked out at 6 nM.

For `Cc1cc(C)cc(N2CCN(c3nccc(COC(=O)NC(=N)N)c3F)CC2)c1` [Example 1.061], the QH in the data set on hepatocytes (Table 4) came to 13%. Also, the IC50 on AOC3 (Table 1, read-out: AOC3 IC50) amounted to 8 nM.

`N=C(N)NC(=O)OCc1ccnc(N2CCN(c3cncnc3)CC2)c1F` [Example 1.017] displayed a QH in the data set on hepatocytes (Table 4) of 6%. Moreover, the IC50 at AOC3 (Table 1, read-out: AOC3 IC50) was 3 nM.

For the molecule `N#Cc1cccc(C2CCN(c3nccc(COC(=O)NC(=N)N)c3F)CC2)c1` [Example 1.051], the QH in the data set on hepatocytes (Table 4) is reported as 20%. In addition, the IC50 on AOC3 (Table 1, read-out: AOC3 IC50) was 2 nM.

As to `N#Cc1ccc(N2CCN(c3nccc(COC(=O)NC(=N)N)c3F)CC2)cc1` [Example 1.055], the QH in the data set with hepatocytes (Table 4) worked out at 16%. Moreover, at AOC3 (Table 1, read-out: AOC3 IC50), the IC50 is 2 nM.

`N#Cc1ccc(N2CCN(c3nccc(COC(=O)NC(=N)N)n3)CC2)cc1` [Example 1.027]: the QH with hepatocytes (Table 4) worked out at 9%. The IC50 at AOC3 (Table 1, read-out: AOC3 IC50) is 2 nM.

`COc1cccc(N2CCN(c3nccc(COC(=O)NC(=N)N)c3F)CC2)c1` [Example 1.068]: the QH with hepatocytes (Table 4) is 23%. Further, the IC50 at AOC3 (Table 1, read-out: AOC3 IC50) was found to be 7 nM.

In the data set with hepatocytes (Table 4), `CN(C)C(=O)c1ccc(N2CCN(c3nccc(COC(=O)NC(=N)N)c3F)CC2)cc1` [Example 1.100] had a QH of 9%. Moreover, the IC50 at AOC3 (Table 1, read-out: AOC3 IC50) was 5 nM.

For `N#Cc1ccc(N2CCN(c3nccc(COC(=O)NC(=N)N)c3F)CC2)c(F)c1` [Example 1.083], in the data set on hepatocytes (Table 4), the QH is on record as 11%. Further, on AOC3 (Table 1, read-out: AOC3 IC50), the IC50 amounted to 4 nM.
